The values below come from publication PMC9760444, “Direct targeting of sEH with alisol B alleviated the apoptosis, inflammation, and oxidative stress in cisplatin-induced acute kidney injury” (International Journal of Biological Sciences, 2023).

This assay has as its target T1, soluble epoxide hydrolase (sEH) (Homo sapiens, UniProt P34913).
T1 construct: gene EPHX2; Recombinant human sEH
T1 sequence (P34913 1-555): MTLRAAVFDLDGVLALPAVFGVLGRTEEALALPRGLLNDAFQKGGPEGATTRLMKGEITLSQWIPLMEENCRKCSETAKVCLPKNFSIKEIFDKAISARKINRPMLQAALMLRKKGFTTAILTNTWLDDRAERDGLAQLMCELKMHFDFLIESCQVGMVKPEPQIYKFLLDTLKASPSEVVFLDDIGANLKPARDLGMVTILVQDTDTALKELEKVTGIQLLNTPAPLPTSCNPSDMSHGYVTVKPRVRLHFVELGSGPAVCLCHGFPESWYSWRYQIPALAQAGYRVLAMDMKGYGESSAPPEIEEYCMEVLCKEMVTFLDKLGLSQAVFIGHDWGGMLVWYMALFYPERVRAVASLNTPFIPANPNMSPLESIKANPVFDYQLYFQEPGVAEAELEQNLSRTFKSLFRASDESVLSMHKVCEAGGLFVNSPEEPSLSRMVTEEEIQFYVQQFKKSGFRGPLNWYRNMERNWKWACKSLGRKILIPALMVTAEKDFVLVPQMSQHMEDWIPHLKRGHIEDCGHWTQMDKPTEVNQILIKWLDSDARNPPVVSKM
Description: SPR (Biacore T200); supported by inhibition kinetics (Ki […]), pull-down, CETSA, SIP, DARTS. Format: binding. Background: Surface plasmon resonance follows binding to a sensor surface in real time, without labels.

Each structure is given as a SMILES string.

The Kd is the free concentration of one partner at which half of the binding sites on the other are occupied at equilibrium, for simple one-to-one binding. High values mean lower affinity, low ones higher affinity. Regarding `C[C@H](C[C@H](O)[C@H]1OC1(C)C)C1=C2C[C@H](O)[C@H]3[C@@]4(C)CCC(=O)C(C)(C)[C@@H]4CC[C@]3(C)[C@@]2(C)CC1` [alisol B], the Kd came to 1320 nM.
